Measurements as given in patent publication US6495577B2, “Pesticidal composition” (Aventis CropScience GmbH, priority 2000, dated 2002).

Test system: Trialeurodes vaporariorum
Assay: Mortality of whitefly nymphs on sprayed French bean plants (greenhouse)
Type: in vivo
Conditions: 240 h, 10 days after application
Source text: The invention is illustrated in the following Example which describe experiments in which a synergistic effect was observed. The desired concentration of the active ingredients was achieved by diluting, with water, the commercially available 25% by volume emulsifiable concentrate of deltamethrin and 20% by weight water soluble powder of acetamiprid, each of which contained conventional surfactants.
Two plants of two week old French beans (Phaseolus vulgaris) were infested with adult whitefly (Trialeurodes vaporariorum) for oviposition in a closed chamber. After 48 hours, the adults were blown off the plants so that only the eggs stayed at the surface of the leaves. The plants were placed in a greenhouse for 7 days to complete the development of the eggs to the larval stage L 1/2. The plants were then sprayed with the individual compounds and mixtures of the two, by hand with a spray gun, until complete coverage of the plant surfaces with the spray liquid was obtained. The plants were then placed in the greenhouse for a further 10 days. Two replicates of each test was carried. The mortality of the nymphs of Trialeurodes vaporadorum was estimated 10 days after application and the average of the two replicates calculated.
To indicate the existence of synergism between the active components, the results were treated in the manner described by Colby S. R., “Calculating Synergistic and Antagonistic Responses of Herbicide Combinations,” Weeds, 1967, 15, 20-22. In this method, the “expected” percent control, E, of the combination is given by the equation: [formula]
The LC50 in ppm of the mixtures was calculated and compared with the expected LC50 from the expected mortalities according to Colby.

Row | SMILES | mortality at 0.1 ppm (acetamiprid 0,1 ppm alone) [%] | mortality at 0.03 ppm (acetamiprid 0,03 ppm alone) [%] | mortality at 0.3 ppm (acetamiprid 0,3 ppm alone) [%] | mortality at 1 ppm (acetamiprid 1 ppm alone) [%] | mortality at 3 ppm (acetamiprid 3 ppm alone) [%] | mortality at 0.01 ppm (deltamethrin 0,01 ppm alone) [%] | mortality at 0.1 ppm (deltamethrin 0,1 ppm alone) [%] | mortality at 0.02 ppm (deltamethrin 0,02 ppm alone) [%] | mortality at 0.2 ppm (deltamethrin 0,2 ppm alone) [%] | mortality at 0.06 ppm (deltamethrin 0,06 ppm alone) [%] | mortality at 0.6 ppm (deltamethrin 0,6 ppm alone) [%] | mortality at 0.33 ppm (deltamethrin 0,33 ppm alone) [%] | mortality at 1 ppm (deltamethrin 1 ppm alone) [%] | mortality at 0.006 ppm (deltamethrin 0,006 ppm alone) [%] | mortality at 0.033 ppm (deltamethrin 0,033 ppm alone) [%]
1 | C/C(=N\C#N)N(C)Cc1ccc(Cl)nc1 [acetamiprid, E-N^1-[(6-chloro-3-pyridylmethyl)]-N^2-cyano-N^1-methylacetamidine] | 1.25 | 0 | 7.5 | 23.8 | 56.2 |  |  |  |  |  |  |  |  |  | 
2 | CC1(C)[C@H](C(=O)O[C@H](C#N)c2cccc(Oc3ccccc3)c2)[C@@H]1C=C(Br)Br [deltamethrin, (S)-α-cyano-3-phenoxybenzyl (1R,3R)-3-(2,2-dibromvinyl)-2,2-dimethylcyclopropanecarboxylate] |  |  |  |  |  | 0.75 | 25 | 2.5 | 36.2 | 15 | 47.5 | 47.5 | 73.8 | 0 | 8.75
